Assay results from ChEMBL document CHEMBL1201862, “PubChem BioAssay data set” (2004).
Calls of active or inactive are those of the source.

What was measured:
Prothrombin = Prothrombin (Homo sapiens, UniProt P00734); assay: Thrombin 1536 HTS Dose Response Confirmation. [Related pubchem assays: 1046 (Thrombin 1536 HTS; hits were confirmed in this assay)]; type: functional
[1] = target: T1, Tyrosine-protein phosphatase non-receptor type 7 (Homo sapiens, UniProt P35236); assay: HePTP tyrosine phosphatase activity blockers – biochemical, absorbance, leukemia target, primary screen (AID 521); type: functional
T1 sequence (P35236 whole entry): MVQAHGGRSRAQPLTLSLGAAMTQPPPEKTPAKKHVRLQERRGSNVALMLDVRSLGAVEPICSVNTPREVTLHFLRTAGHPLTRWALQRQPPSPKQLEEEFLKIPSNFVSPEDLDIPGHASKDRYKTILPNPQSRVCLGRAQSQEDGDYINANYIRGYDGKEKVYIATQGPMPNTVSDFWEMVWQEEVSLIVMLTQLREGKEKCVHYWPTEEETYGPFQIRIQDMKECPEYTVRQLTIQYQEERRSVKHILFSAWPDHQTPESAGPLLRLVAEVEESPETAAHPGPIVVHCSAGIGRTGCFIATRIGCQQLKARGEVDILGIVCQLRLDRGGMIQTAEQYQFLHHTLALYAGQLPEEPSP

[2] = potency of ADAM10 substrate cleavage blockers – biochemical, QFRET, dose response (AID 743254);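 also: ADAM10 enzyme with the DM2 quenched FRET peptide as substrate; EDANS fluorescence gain as the protease cuts the substrate; inhibitor potency against ADAM10 proteolytic activity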
[3] = target: Disintegrin and metalloproteinase domain-containing protein 17 (Homo sapiens, UniProt P78536); assay: inhibition of ADAM17 substrate cleavage – biochemical, quenched FRET substrate, counter-screen for ADAM10 exosite inhibitor project, dose response (AID 743253)
fMet-Leu-Phe receptor = target: T2, fMet-Leu-Phe receptor (Homo sapiens, UniProt P21462); assay: formyl peptide receptor binders – dose response (AID 519); type: functional
T2 sequence (P21462 whole entry): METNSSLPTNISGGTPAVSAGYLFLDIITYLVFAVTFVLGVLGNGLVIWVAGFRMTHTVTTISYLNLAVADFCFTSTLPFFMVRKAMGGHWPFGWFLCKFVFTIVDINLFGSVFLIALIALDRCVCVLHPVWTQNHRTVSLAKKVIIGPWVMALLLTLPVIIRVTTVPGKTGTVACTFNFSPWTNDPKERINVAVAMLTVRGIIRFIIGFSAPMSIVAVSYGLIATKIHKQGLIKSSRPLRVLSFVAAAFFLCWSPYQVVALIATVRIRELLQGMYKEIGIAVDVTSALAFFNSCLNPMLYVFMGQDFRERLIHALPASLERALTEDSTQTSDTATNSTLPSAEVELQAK

[4] = decrease of insulin promoter-GFP reporter – imaging, high-content screening, mouse beta cells (AID 1628); type: functional; details: MIN6
[5] = MIN6 cell viability loss – mouse insulinoma, cytotoxicity control, dose response (AID 2122); type: functional;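 also: confirmatory high-throughput counterscreen run to flag cytotoxic compounds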
[6] = target: T3, Microphthalmia-associated transcription factor (Homo sapiens, UniProt O75030); assay: reducers of TRPM1 reporter luminescence, concentration series – cell-based, SK-MEL-5, cherry-picked, set 3, MITF inhibitor project, dose response (AID 493073); type: functional;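 also: SK-MEL-5 melanoma cells with luciferase driven by the MITF target TRPM1 promoter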
T3 sequence (O75030 whole entry): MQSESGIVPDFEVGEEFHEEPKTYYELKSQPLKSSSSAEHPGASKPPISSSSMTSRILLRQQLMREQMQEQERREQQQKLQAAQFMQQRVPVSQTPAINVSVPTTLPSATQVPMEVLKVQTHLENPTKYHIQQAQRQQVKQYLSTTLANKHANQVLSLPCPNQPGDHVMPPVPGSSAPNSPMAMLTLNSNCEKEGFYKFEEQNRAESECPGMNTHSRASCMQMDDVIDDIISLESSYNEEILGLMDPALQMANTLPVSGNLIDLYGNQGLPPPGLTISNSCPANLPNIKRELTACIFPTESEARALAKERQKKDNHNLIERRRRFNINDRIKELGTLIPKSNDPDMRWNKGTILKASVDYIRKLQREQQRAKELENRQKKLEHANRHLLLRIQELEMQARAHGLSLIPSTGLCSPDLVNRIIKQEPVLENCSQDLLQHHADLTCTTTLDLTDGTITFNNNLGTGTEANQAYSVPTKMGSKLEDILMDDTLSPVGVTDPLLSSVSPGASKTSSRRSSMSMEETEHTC

INS1 = assay: INS-1E survival protection against cytokine death – cell-based, luminescence, retest, dose response (AID 449756); type: functional; details: Rattus norvegicus;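 also: cell death triggered by IL-1 beta plus TNF-alpha plus IFN-gamma mixture; protective hits raise ATP signal compared with cytokine alone wells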
[7] = target: Eukaryotic translation initiation factor 4E (Mus musculus, UniProt P63073); assay: blockers of eIF4G binding by eIF4E – biochemical, TR-FRET, dose response (AID 855); type: functional;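 also: potency for disrupting eIF4E binding to eIF4GI seen as loss of FRET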
Cytochrome P450 2C9 = Cytochrome P450 2C9 (Homo sapiens, UniProt P11712)
[8] = cytotoxicity in MITF-independent A375 cells – cell-based, CellTiter-Glo luminescence, dry powder, set 4, counter-screen for MITF inhibitor project, dose response (AID 624364); type: functional; details: A-375;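 also: A375 melanoma cells are MITF independent so this is a counter screen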

Chain of Disintegrin and metalloproteinase domain-containing protein 17 (P78536 whole entry, the tested form may be a part): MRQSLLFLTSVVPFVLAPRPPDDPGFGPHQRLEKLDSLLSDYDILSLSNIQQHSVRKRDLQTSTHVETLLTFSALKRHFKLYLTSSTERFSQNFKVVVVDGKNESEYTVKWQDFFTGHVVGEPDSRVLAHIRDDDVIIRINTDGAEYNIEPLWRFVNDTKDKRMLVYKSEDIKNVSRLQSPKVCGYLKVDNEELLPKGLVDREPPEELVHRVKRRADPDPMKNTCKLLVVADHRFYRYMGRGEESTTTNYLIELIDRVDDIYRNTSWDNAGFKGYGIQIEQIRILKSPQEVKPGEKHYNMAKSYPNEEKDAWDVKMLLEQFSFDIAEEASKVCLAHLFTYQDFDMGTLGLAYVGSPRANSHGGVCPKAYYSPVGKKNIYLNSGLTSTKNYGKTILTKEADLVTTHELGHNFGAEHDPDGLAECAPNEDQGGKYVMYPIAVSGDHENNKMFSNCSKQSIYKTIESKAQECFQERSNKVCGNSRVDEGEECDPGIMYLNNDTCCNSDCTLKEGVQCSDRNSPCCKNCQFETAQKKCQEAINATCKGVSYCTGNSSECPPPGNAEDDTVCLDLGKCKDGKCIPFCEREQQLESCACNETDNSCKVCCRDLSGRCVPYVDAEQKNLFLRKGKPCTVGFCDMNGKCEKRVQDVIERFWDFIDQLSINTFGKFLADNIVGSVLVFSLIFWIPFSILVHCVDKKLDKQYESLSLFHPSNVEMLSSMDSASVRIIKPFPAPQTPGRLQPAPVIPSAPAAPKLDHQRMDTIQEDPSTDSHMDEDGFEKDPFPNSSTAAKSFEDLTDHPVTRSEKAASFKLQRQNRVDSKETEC
Chain of Eukaryotic translation initiation factor 4E (P63073 whole entry): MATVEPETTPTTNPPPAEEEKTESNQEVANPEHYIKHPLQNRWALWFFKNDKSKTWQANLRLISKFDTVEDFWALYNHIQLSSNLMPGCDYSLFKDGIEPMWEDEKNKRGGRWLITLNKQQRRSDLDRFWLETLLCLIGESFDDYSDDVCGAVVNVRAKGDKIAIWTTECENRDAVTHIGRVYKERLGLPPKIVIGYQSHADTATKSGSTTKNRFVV
Chain of Cytochrome P450 2C9 (P11712 whole entry): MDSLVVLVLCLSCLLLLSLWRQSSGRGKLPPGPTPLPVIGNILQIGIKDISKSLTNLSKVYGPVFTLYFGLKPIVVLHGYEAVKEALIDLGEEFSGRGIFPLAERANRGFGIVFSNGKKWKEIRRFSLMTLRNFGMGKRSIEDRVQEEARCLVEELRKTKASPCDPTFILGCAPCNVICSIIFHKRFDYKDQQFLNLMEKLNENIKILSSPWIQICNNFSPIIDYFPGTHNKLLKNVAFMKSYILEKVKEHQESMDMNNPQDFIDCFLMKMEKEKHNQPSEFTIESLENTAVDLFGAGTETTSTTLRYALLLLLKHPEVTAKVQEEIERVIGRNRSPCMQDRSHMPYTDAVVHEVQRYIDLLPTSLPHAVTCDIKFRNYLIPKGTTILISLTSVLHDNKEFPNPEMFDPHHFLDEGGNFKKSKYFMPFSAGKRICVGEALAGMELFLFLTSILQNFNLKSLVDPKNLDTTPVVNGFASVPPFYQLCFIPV

Structure (SMILES): CCN(CC)CCCN(Cc1cc2cc3c(cc2[nH]c1=O)OCO3)C(=S)Nc1ccccc1OC
- IC50 (Prothrombin): > 50 µM (not active)

Structure (SMILES): Cc1ccc(-n2c(Cc3cccn3C)nnc2SCC(=O)NCc2ccco2)cc1
- IC50 [1]: > 100 µM (not active)

Structure (SMILES): CCC(C)[C@H](NC(=O)NCC1CCCO1)C(=O)OC (stereo partly specified)
- IC50 [1]: > 100 µM (not active)

Structure (SMILES): CCc1nc2ccc(C(=O)Nc3cccc(OC)c3)cn2c1N(CC)Cc1cccc(Br)c1
- IC50 [2]: > 69.5 µM (inactive)
- IC50 [3]: > 69.5 µM (inactive)

Structure (SMILES): COCCCN1C(=O)C(O)=C(C(=O)c2ccc3c(c2)CC(C)O3)C1c1cccnc1 (stereo unspecified)
- Ki (fMet-Leu-Phe receptor): > 66.7 µM (inactive)

Structure (SMILES): O=[N+]([O-])c1cccc2c(N3CCCC3)ccnc12
- IC50 [4]: 2.41 µM (active)
- IC50 [5]: 1.18 µM (active)
- AC50 [6]: 2.47 µM (active)
- AC50 (INS1): 3.17 µM (active)

Structure (SMILES): CCCCOC(=O)Sc1nc2ccccc2o1
- IC50 (Prothrombin): 3.11 µM (active)

Structure (SMILES): COc1ccc(/C=N/n2cnc3c4cc(Br)ccc4nc-3c2O)cc1CN1CCOCC1
- IC50 [7]: > 64 µM (inactive)
- AC50 (Cytochrome P450 2C9): 3.55 µM (inconclusive)

Structure (SMILES): O=C1C(NS(=O)(=O)c2ccc(Br)cc2)=C(N2CCN(c3ccccc3)CC2)C(=O)c2ccccc21
- AC50 [8]: > 70 µM (inactive)

Structure (SMILES): CCOc1ccc(CCN2C(=S)N([C@@H](Cc3ccc(O)cc3)CN3CCC[C@@H]3CN3C(=S)NC[C@@H]3CC(C)C)C[C@@H]2Cc2ccccc2)cc1
- IC50 [2]: > 69.5 µM (inactive)
- IC50 [3]: > 69.5 µM (inactive)
